Measured values as given in the supplement of paper PMC10307832.

Legend:
Assay in all cases: relative viability (nuclei count vs DMSO), 5 days (fraction); higher = more cells survive
[1] = compound: CCOC(=O)CCNc1cc(N2CCc3ccccc3CC2)nc(-c2ccccn2)n1 [GSK-J4] + O=C(c1cc(Cc2n[nH]c(=O)c3ccccc23)ccc1F)N1CCN(C(=O)C2CC2)CC1 [Olaparib] (partner 8 µM)
In short: (§1)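 Lung cancer cell lines in 1536-well plates got either a single drug or a fixed anchor-drug dose together with five library-drug doses (not always all listed) in √10 steps, by pin tool, on the day after seeding. Nuclei were counted after 5 days, and relative viability is the treated-to-vehicle ratio of nuclei counts. Values are medians of duplicate plates.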

[2] = compound: CCOC(=O)CCNc1cc(N2CCc3ccccc3CC2)nc(-c2ccccn2)n1 [GSK-J4] + Nc1nc2[nH]cc(CCc3ccc(C(=O)N[C@@H](CCC(=O)O)C(=O)O)cc3)c2c(=O)[nH]1 [Pemetrexed] (partner 0.2 µM)
In short: as §1

[3] = compound: CN1CCC(CC1)OC2=CC(=C(C=C2)NC3=NC=C4C(=N3)N(C(=O)N4C)C5CCCC5)OC [AZ3146] + O=C(CCCCCCC(=O)Nc1ccccc1)NO [Vorinostat] (partner 1 µM)
In short: as §1

[4] = compound: CN1CCC(CC1)OC2=CC(=C(C=C2)NC3=NC=C4C(=N3)N(C(=O)N4C)C5CCCC5)OC [AZ3146] + CS(=O)(=O)N1CCN(Cc2cc3nc(-c4cccc5[nH]ncc45)nc(N4CCOCC4)c3s2)CC1 [Pictilisib] (partner 1 µM)
In short: as §1

Cell Line | relative viability ([1]; first compound 0.5 µM) | relative viability ([1]; first compound 1.581 µM) | relative viability ([1]; first compound 5 µM) | relative viability ([1]; first compound 15.81 µM) | relative viability ([1]; first compound 50 µM) | relative viability ([2]; first compound 0.5 µM) | relative viability ([2]; first compound 1.581 µM) | relative viability ([2]; first compound 5 µM) | relative viability ([2]; first compound 15.81 µM) | relative viability ([2]; first compound 50 µM) | relative viability ([3]; first compound 0.08 µM) | relative viability ([3]; first compound 0.253 µM) | relative viability ([3]; first compound 0.8 µM) | relative viability ([3]; first compound 2.53 µM) | relative viability ([3]; first compound 8 µM) | relative viability ([4]; first compound 0.08 µM) | relative viability ([4]; first compound 0.253 µM) | relative viability ([4]; first compound 0.8 µM) | relative viability ([4]; first compound 2.53 µM) | relative viability ([4]; first compound 8 µM)
LOU-NH91 | 0.932 | 0.859 | 0.691 | 0.872 | 0.802 | 0.39 | 0.381 | 0.36 | 0.346 | 0.441 | 0.866 | 0.837 | 0.968 | 1 | 0.832 | 0.475 | 0.542 | 0.459 | 0.494 | 0.474
LU99A | 0.248 | 0.265 |  | 0.207 | 0.205 | 0.16 | 0.158 |  | 0.178 | 0.166 |  | 0.507 | 0.503 | 0.514 | 0.481 | 0.318 | 0.351 | 0.32 | 0.376 | 0.351
LXF-289 | 1.03 | 1.01 | 1.14 | 0.991 | 0.891 | 0.835 | 0.776 | 0.931 | 0.805 | 0.813 | 0.752 | 0.827 | 0.796 | 0.872 | 0.587 | 0.693 | 0.776 | 0.779 | 0.824 | 0.642
NCI-H522 | 0.597 | 0.552 |  | 0.531 | 0.409 | 0.983 | 0.823 |  | 0.608 | 1.1 | 0.66 | 0.695 | 0.945 | 0.903 | 0.835 |  |  |  |  | 
NCI-H727 | 0.597 | 0.596 | 0.581 | 0.718 | 0.472 |  |  |  |  |  | 1.01 | 1.22 | 1.03 | 1.17 | 1.11 | 0.324 | 0.431 | 0.328 | 0.605 | 0.316
NCI-H1299 | 0.96 | 0.916 | 0.878 | 0.929 | 0.772 |  |  |  |  |  |  |  |  |  |  | 0.786 | 0.976 | 0.677 | 0.734 | 0.264
NCI-H1563 |  |  |  |  |  | 0.738 | 1.26 | 0.717 | 0.698 | 0.76 |  |  |  |  |  | 0.636 | 0.641 | 0.729 | 0.685 | 0.604
NCI-H1648 | 0.869 |  | 1.44 |  | 0.793 | 0.618 |  | 1.02 |  | 0.873 |  |  | 0.554 | 0.498 | 0.634 |  |  |  |  | 
NCI-H1703 | 0.385 | 0.576 | 0.372 | 0.362 | 0.422 |  |  |  |  |  |  |  |  |  |  | 0.254 | 0.258 | 0.231 | 0.228 | 0.234
NCI-H1792 | 0.45 | 0.286 | 0.309 | 0.429 | 0.341 | 0.799 | 0.595 | 0.501 | 0.632 | 0.777 |  |  |  |  |  | 0.211 | 0.238 | 0.32 | 0.339 | 0.285
NCI-H2342 | 0.368 | 0.427 | 0.501 | 0.431 | 0.476 | 0.737 | 0.79 | 0.762 | 0.84 | 0.824 | 0.705 | 0.688 | 1.01 | 0.695 | 0.764 |  |  |  |  | 
SW 900 | 0.903 | 0.935 | 1.15 | 0.797 | 0.549 | 0.478 | 0.478 | 0.475 | 0.442 | 0.526 | 0.465 |  | 0.393 | 0.48 | 0.446 |  |  |  |  | 
